Consider 1 molecule from US4952564A, “Antiallergic agent” (Dainippon Ink and Chemicals, Inc., priority 1986, dated 1990).

Data set [1] is described as follows: Side effects when administered for a long time. It is filed as in vivo. To be noted: no test described.
In another data set the test system is ddY male mice. Put plainly: Acute toxicity (minimum lethal dose) in mice. The class given is in vivo. To be noted: for minimum lethal dose: five 5-week-old ddY male mice. The procedure:
Isoliquiritigenin was orally or intra-peritoneally administered to five 5-week-old ddY male mice. Consequently, it was determined that the minimum lethal dose was not less than 3000 mg/kg (oral administration) or not less than 1000 mg/kg (intra-peritoneal administration).

In data set [2] the test system is rat peritoneal exudation cells. In words: Inhibition effect on the liberation of histamine by compound 48/80. It is filed as cell-based. To be noted: for Liberation ratio of histamine (%): control 87.4, blank 9.3. The procedure: 2. Inhibition effect of the medicine on the liberation of histamine by compound 48/80.
(1) Preparation of rat peritoneal exudation cells
10 ml of Locke's solution containing 0.1% of bovine serum albumin was injected into the abdominal cavity of a rat which had been killed by exsanguination. The rat was lightly massaged, then subjected to an abdominal section so that an abdominal solution was collected. The abdominal cavity was also washed with 5 ml of the same solution and the washing solution was collected and mixed with the above abdominal solution. The abdominal solution was centrifuged at 500 rpm for 5 minutes, then 5 ml of cool Locke's solution was added to the sediment. After the sediment had been washed, 3 ml of cool Locke's solution was again added thereto to form a solution of rat peritoneal exudation cells.
(2) Inhibition effect of medicine on the liberation of histamine by compound 48/80.
0.5 ml of Locke's solution and 1.0 ml of each of the solutions of isoliquiritigenin prepared to the concentration shown in Table 2 (the isoliquiritigenin was dissolved in a physiological saline solution containing 1% sodium bicarbonate, the resultant solution being diluted with Locke's solution) were added to 0.3 ml of the solution of rat peritoneal exudation cells obtained in (1) above and were incubated at 37° C. for 5 minutes. Then, 0.2 ml each of a Locke's solution of the compound 48/80 (1 mg/100 ml) was added to the solution and the mixture was incubated at 37° C. for 10 minutes. After the reaction was stopped by cooling, the obtained solution was centrifuged at 2,500 rpm for 10 minutes to be separated into 1.7 ml of supernatant and 0.3 ml of sediment. 0.1 ml of water and 0.2 ml of 100% trichloroacetic acid were added to the supernatant, and 1.5 ml of Locke's solution and the 100% trichloroacetic acid were added to the sediment which was then allowed to stand for 30 minutes at room temperature and was centrifuged at 3,000 rpm for 15 minutes. 0.35 ml of each of the supernatant and the supernatant of the sediment was taken and 1.65 ml of water and 0.4 ml of 1N sodium hydroxide were added in turn to each of the supernatants. 0.1 ml of 0.5% OPT (orthophthalaldehyde) methanol solution was added to each of the resultant solutions which were then allowed to react at room temperature for 4 minutes. After the reaction was stopped by the addition of 0.2 ml of 2M citric acid, the fluorescence of each of the reaction solutions was measured by a fluorophotometer. […]
The inhibition ratio of isoliquiritigenin for the liberation of histamine by the compound 48/80 is calculated from the following equations: [formula]

The conditions of data set [3]: used in treatment of gastric ulcers; cited from earlier work.
Another data set deals with ileum of the guinea pig. Put plainly: Schultz-Dale reaction (antigen-induced contraction of ileum of actively sensitized guinea pig). It is filed as cell-based, guinea pig (Hartley). As for the experimental part: The Schultz-Dale test and the inhibition effect of the compound of the present invention on the liberation of histamines by a compound 48/80 indicate that isoliquiritigenin has an antiallergic activity.
(1) Active sensitization of guinea pig by antigenic egg-white albumin (EWA)
After 1, 2 and 3 weeks, additional sensitization was conducted by injecting an equivalent mixed emulsion of a physiological saline solution of 4 mg/ml of EWA and complete Freund's adjuvant into the muscle at a ratio of 0.1 ml/100 g and the guinea pig was subjected to the Schultz-Dale reaction one week after the final sensitization.
(2) Schultz-Dale reaction
The ileum of the guinea pig which was actively sensitized in (1) above was extirpated and immediately soaked in Tyrode's solution to form a specimen of a length of 15 mm which was suspended at a tensile force of l.5 g in a Magnus' tube (10 ml) kept at a temperature of 37° C. Contraction of the ileum by 10^-6 mole of histamine. […] Then, after preincubation for about 2 minutes, 10 μg/ml of EWA was added to the Magnus' tube and the contraction of the ileum was recorded. As a control, the contraction of the ileum was measured by an operation which was similar to that of the above, except that the physiological saline solution of isoliquiritigenin containing 0.2% sodium bicarbonate was not applied. […]

In the case of `O=C(/C=C/c1ccc(O)cc1)c1ccc(O)cc1O` [Isoliquiritigenin, isoliquiritigenin], the side effects entry in data set [1] is given as “few side effects”. In addition, the minimum lethal dose result is reported as “not less than 1000 mg/kg” in the data set on ddY male mice (intra-peritoneal administration) and “not less than 3000 mg/kg” with ddY male mice (oral administration). The toxicity entry with ddY male mice (result in words) is given as “very low toxicity”. The figures for the “Liberation ratio of histamine (%)” value in data set [2] (isoliquiritigenin 100 mg/ml), in data set [2] (isoliquiritigenin 300 mg/ml) and in data set [2] (isoliquiritigenin 1000 mg/ml) were 71.0%, 32.7% and 9.2%, respectively. In addition, the “liberation of histamine from mast cells by compound 48/80” value in data set [2] (result in words) is “inhibits histamines from liberating mast cells by the compound 48/80”. The antiulcerous activity result in data set [3] is recorded as “exhibits an antiulcerous activity”. The inhibition at 100 µM in the data set on ileum of the guinea pig (Cavia porcellus, 10^-4 mole, EWA 10 μg/ml, versus control, read-out: Inhibition ratio (%)) amounted to 90.2%. Besides, the “contraction of the ileum of the guinea pig by histamine and SRS-A” value in the data set on ileum of the guinea pig (result in words) is “inhibits the contraction of the ileum of the guinea pig by histamine and SRS-A”.
